The results in this text go back to patent US4513008A, “Virucidal compositions and therapy” (The Vinoxen Company, Inc., priority 1982, dated 1985).

The structures appear in SMILES notation. ≈ marks a conversion by molar mass, not a printed value.

For this experiment, the system named is herpes simplex virus type 2 (HSV-2). Put plainly: In vitro HSV-2 bioassay: virucidal plaque assay (HEP-2 cells). Type of experiment: cell-based, HSV-2 strain 333. To be noted: for MIC: Human alphaherpesvirus 2, 0.5 h, Table 4 run, 30 min at 25° C., upper limit, dilutions to 1:12800, read-out: MIC (lowest concentration producing a 3-log reduction in virus titer); for virucidal activity against HSV-2 in words: in vitro bioassay. On the procedure: Evidence of the efficacy of the virucides of the invention in vitro has been obtained from bioassay using HSV-2, using a standard assay procedure. Serial dilutions of the compounds were tested for their ability to prevent plaque formation by a stock virus suspension. Reduction of plaque titer by test compounds as compared to mock treated controls was indicative of virucidal activity. […] These represent the upper limit for the drug concentration, since dilutions were not carried beyond 1:6400 and in some cases 1:12800.
Cell Culture. Cell cultures used for the propagation and titration of HSV-2 were the human diploid lung embryonic line MRC-5 and the human malignant epitheloid cell line HEP-2 respectively. Stock monolayer cultures of both cell lines were propagated in Dulbecco's Modified Eagle's medium (DME) supplemented with 10% (V/V) calf serum. Spinner cultures for mass production of HEP-2 cells were grown in Joklik's medium supplemented with 10% (V/V) calf serum and 1% (W/V) pluronic acid. Monolayer cultures of HEP-2 cells for plaque or virucidal assay were seeded into 60 mm dishes in DME supplemented with 10% calf serum and antibiotics. Stock cultures were maintained in antibiotic free medium.
Herpes simplex virus, type 2 (HSV-2) strain 333 was obtained from Dr. John Hughes of the Dept. of Medical Microbiology, College of Medicine, The Ohio State University. Stocks of HSV-2 were prepared in the human diploid embryonic lung cell line, MRC-5. Confluent MRC-5 monolayer cultures in T-75 plastic flasks were washed one time with Hank's and Balanced Salt solution (HBSS) and infected with 0.5 ml of HSV-2, strain 333 stock. Virus was adsorbed for 1 hour at 37° C. Then the culture was refed with 15 ml of DME supplemented with 1% (V/V) calf serum. Virus was harvested 48 hours later when cytopathology was complete. Cultures were frozen and thawed rapidly three times to release cell associated virus, clarified by centrifugation at 10,000×g for 15 minutes at 4° C., aliquoted into 5 ml lots and frozen at -70° C. One lot was taken for virus titration.
HSV-2 was titrated by plaque assay in HEP-2 cells under a semi-solid methyl cellulose overlay. Tenfold serial dilutions of virus were prepared in HBSS and 0.3 ml aliquots of each dilution inoculated onto triplicate HEP-2 cell monolayers in 60 mm plastic petri dishes. Adsorption of virus was for 1 hour at 37° C. Plates were then overlayed with 5 ml of a 1:1 mixture of 2×DME supplemented with 2% (V/V) calf serum and 3% (W/V) methyl cellulose to give a final 1×DME supplemented with 1% calf serum and 1.5% methylcellulose. Infected plates were incubated at 37° C. in a humidified 10% CO2 atmosphere for 48 hours. Virus plaques were visualized by staining with crystal violet and counted under a dissecting microscope. Virus titers were calculated from the plaque numbers by averaging the plaque count and multiplying by 3.3 (0.3 ml plates).
The following procedure was employed to assay virucidal activity in various test samples. Compounds were received as a solution in DMSO and were serially diluted in HBSS as described for each experiment. For the test, 1 ml of each dilution was mixed with 1 ml of a stock virus suspension diluted to approximately 9×10^3 plaque forming units (P.F.U.)/ml. This test mixture was incubated at 25° C. for 30 minutes, then inoculated onto a cell culture (HEP-2) for plaque assay as described previously. Mock treated (virus plus HBSS) controls were included with each test. Any reduction of plaque titer by test compounds as compared to the mock treated control was indicative of virucidal activity.
Samples from RP-HPLC fractionation of the CLOH, produced according to Example 2, as well as purified samples of palmitic, myristic and oleic acids and Vitamin D2, were tested for HSV-2 bioactivity. […] Pure oleic acid was not active in this assay, nor were palmitic and myristic acids and Vitamin D2. […]

[1] abbreviates: Table 3, dilution 1:10, control titer 4.5 × 10^3.
Where [2] appears, read: Table 3, dilution 1:400, TNTC = too numerous to count.
The mark [3] stands for this setting: Table 3, dilution 1:800, TNTC = too numerous to count.
Where [4] appears, read: Table 3, dilution 1:1600, TNTC = too numerous to count.
The mark [5] stands for this setting: Table 3, dilution 1:3200, TNTC = too numerous to count.
Setting [6] is: Table 3, dilution 1:6400, TNTC = too numerous to count.
Setting [7] is: Table 3, dilution 1:12800, TNTC = too numerous to count.
[8] abbreviates: Table 1, dilution 1:10, TNTC = too numerous to count.
[9] abbreviates: Table 1, dilution 1:100, TNTC = too numerous to count.
[10] abbreviates: Table 1, dilution 1:200, TNTC = too numerous to count.
Where [11] appears, read: Table 1, dilution 1:400, TNTC = too numerous to count.
Where [12] appears, read: Table 1, dilution 1:800, TNTC = too numerous to count.
Where [13] appears, read: Table 1, dilution 1:1600, TNTC = too numerous to count.
[14] abbreviates: Table 1, dilution 1:3200, TNTC = too numerous to count.
Setting [15] is: Table 1, dilution 1:6400, TNTC = too numerous to count.

Turning to `CCC=CCC=CCC=CCC=CCC=CCC=CCCC(=O)OC` [DHA--ME, docasahexaenoic acid, methyl ester], the plaque count runs as follows: (Table 3, dilution 1:10) 95; (Table 3, dilution 1:100) 293; under setting [2], “TNTC”; under setting [3], “TNTC”; under setting [4], “TNTC”; under setting [5], “TNTC”. Besides, the plaque count result is given as “TNTC” under setting [6] and “TNTC” under setting [7]. The titer is given as 3.1 × 10^2 under setting [1]; 9.7 × 10^2 (Table 3, dilution 1:100); “TNTC” (Table 3, dilution 1:400); “TNTC” (Table 3, dilution 1:800); “TNTC” (Table 3, dilution 1:1600); “TNTC” (Table 3, dilution 1:3200). In addition, the titer result by setting is: (Table 3, dilution 1:6400) “TNTC”; (Table 3, dilution 1:12800) “TNTC”.

`CC/C=C\C/C=C\C/C=C\C/C=C\C/C=C\CCCC(=O)O` [EPA, eicosapentaenoic acid]: the MIC amounted to 0.37 µg/mL (≈ 1.22 µM). This compound came in with a plaque count (Table 3, dilution 1:10) of 0. Moreover, the titer under setting [1] was 0. For the same compound, under “Table 3, dilution 1:100”, the plaque count is given as 0.5 and the titer was 1.7 × 10^0. Besides, the titer (Table 3, dilution 1:400) is reported as 1.7 × 10^0. The plaque count under setting [2] was found to be 0.5. In addition, the titer (Table 3, dilution 1:800) is recorded as 1.7 × 10^0. Under setting [3], this compound yielded a plaque count of 0.5. In addition, the titer (Table 3, dilution 1:1600) is on record as 1.7 × 10^0. Under setting [4], this compound came in with a plaque count of 0.5. For the same compound, the titer (Table 3, dilution 1:3200) is reported as 1.7 × 10^0. The plaque count under setting [5] came out at 0.5. For the same compound, the titer (Table 3, dilution 1:6400) was 1.7 × 10^0. Moreover, the plaque count under setting [6] is 0.5. Further, the titer (Table 3, dilution 1:12800) was 1.7 × 10^0. This compound gave a plaque count under setting [7] of 0.5.

With `CCC=CCC=CCC=CCC=CCC=CCCCC(=O)OC` [EPA--ME, eicosapentaenoic acid, methyl ester], the MIC is 540 µg/mL (≈ 1710 µM). Under “Table 3, dilution 1:10”, this compound showed a plaque count of 0. This compound also returned a titer under setting [1] of 0. In addition, under “Table 3, dilution 1:100”, the plaque count is 2.5 and the titer is reported as 8.3 × 10^0. Where the note is “Table 3, dilution 1:400”, the titer was 2.5 × 10^1. The compound further gave a plaque count under setting [2] of 7.5. Besides, the titer (Table 3, dilution 1:800) was 4.5 × 10^1. This compound also came in with a plaque count under setting [3] of 13.5. Besides, the titer (Table 3, dilution 1:1600) was 6.4 × 10^1. The compound further came in with a plaque count under setting [4] of 19.5. The titer (Table 3, dilution 1:3200) is recorded as 1.4 × 10^2. Also, under setting [5], the plaque count is reported as 42.5. Further, the titer (Table 3, dilution 1:6400) is on record as 1.2 × 10^2. In addition, the plaque count under setting [6] amounted to 36.5. The titer (Table 3, dilution 1:12800) is 2.2 × 10^2. This compound also had a plaque count under setting [7] of 66.

Turning to `CCCCCCCCCCCCCC(=O)O` [Myristic acid, reference compound], the “virucidal activity against HSV-2 in words” value (“virucidal activity” below) is “not active”. In addition, the plaque count entry under setting [8] is on record as “TNTC”. Moreover, the plaque count entry under setting [9] is given as “TNTC”. Moreover, the plaque count entry under setting [10] is on record as “TNTC”. The plaque count entry under setting [11] is on record as “TNTC”. The plaque count result under setting [12] is “TNTC”. The plaque count result under setting [13] was “TNTC”. Further, the plaque count entry under setting [14] is recorded as “TNTC”. Moreover, under setting [15], the plaque count result is listed as “TNTC”.

Turning to `CCCCCCCCCCCCCCCC(=O)O` [Palmitic acid, reference compound], the “virucidal activity” value was “not active”. Under setting [8], the plaque count result is listed as “TNTC”. Besides, the plaque count entry under setting [9] was “TNTC”. Moreover, the plaque count result under setting [10] was “TNTC”. In addition, under setting [11], the plaque count result is on record as “TNTC”. In addition, under setting [12], the plaque count entry is “TNTC”. Also, the plaque count entry under setting [13] is given as “TNTC”. Under setting [14], the plaque count entry was “TNTC”. Under setting [15], the plaque count entry is “TNTC”.

As to `C=C1CC[C@H](O)C/C1=C/C=C1\CCC[C@]2(C)[C@@H]([C@H](C)/C=C/[C@H](C)C(C)C)CC[C@@H]12` [Vitamin D2, reference compound], the “virucidal activity” value is on record as “not active”. In addition, under setting [8], the plaque count result was “TNTC”. Besides, the plaque count entry under setting [9] was “TNTC”. Besides, the plaque count result under setting [10] is “TNTC”. For the same compound, the plaque count entry under setting [11] is given as “TNTC”. Moreover, the plaque count entry under setting [12] is recorded as “TNTC”. Besides, the plaque count entry under setting [13] is given as “TNTC”. The plaque count entry under setting [14] was “TNTC”. In addition, the plaque count entry under setting [15] is recorded as “TNTC”.
